Experimental data: patent publication US20190142810A1, “MITOCHONDRIAL INHIBITORS FOR THE TREATMENT OF PROLIFERATION DISORDERS” (Basilea Pharmaceutica International AG, priority 2016, published 2019)

Legend:
[1] = test system: Oxygen consumption (mitochondrial function); test: Oxygen consumption assay (MitoXpress probe); assay type: cell-based; details: 5 h, MitoXpress probe signal, kinetic analysis at 37° C. for 5 hours, compared to untreated cells
From the text: Oxygen consumption is one of the most informative and direct measures of mitochondrial function and can be measured, for example, by using the MitoXpress® assay (Luxcel MX-2001, Luxcel Biosciences). The MitoXpress® probe is one of a family of phosphorescent oxygen sensitive probes. The assay exploits the ability of oxygen to quench the excited state of the MitoXpress® probe. As the test material respires (i.e. the cells), oxygen is depleted in the surrounding solution/environment, which increases the probe phosphorescence signal. Changes in oxygen consumption reflecting changes in mitochondrial activity are seen as changes in the MitoXpress® probe signal over time.
Cells were seeded in 96 well black plates with transparent bottoms (Greiner Bio-One cat. no. 655090) at a density of 50′000 cells/well in a final volume of 100 μL. After 24 hours the incubation media was removed and 150 μL of fresh media containing inhibitors at different concentrations was added to each well. Then, 10 μL of MitoXpress® and 150 μL mineral oil were added per well. Reading from the top of the plate, kinetic analysis was performed at 37° C. for 5 hours using a Synergy 4 plate reader (BioTek) and Time-resolved Fluoresence (TRF) wavelengths of 380/11 nm excitation and 650/20 nm emission or 665/40 emission (30 microsecond delay time, 100 microsecond integration time, gain or sensitivity settings set at either medium or high). IC50s were calculated as the concentration that inhibits 50% of the phosphorescent oxygen sensitive probe signal (MitoXpress®) as compared to untreated cells.

[2] = test system: HeLa galactose cells; test: Cell growth and proliferation assay of HeLa galactose cells (crystal violet); assay type: cell-based; details: Homo sapiens, HeLa, 72 h, 72 hours incubation, crystal violet staining, absorbance at 590 nm
Procedure, shortened: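 HeLa cells adapted stepwise over three weeks to glucose-free galactose medium plus 10 mM galactose, seeded at 2000 cells/well and treated 72 h with compounds (0.001% DMSO) at 37° C. Growth read by crystal violet staining, dye solubilized and absorbance at 590 nm; IC50 from concentration-response curves.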

Row | Compound | IC50 [1] [nM] | IC50 [2] [nM]
1 | Cc1nsc(NC(=O)N2CC/C(=C\c3ccc(Cl)cc3F)CC2C)n1 (stereo not shown) [Example 86, (4E)-4-[(4-chloro-2-fluoro-phenyl)methylene]-2-methyl-N-(3-methyl-1,2,4-thiadiazol-5-yl)piperidine-1-carboxamide] | 61 | 21
2 | Cc1nsc(NC(=O)N2CC/C(=C/c3ccc(Cl)cc3F)CC2C(C)C)n1 (stereo not shown) [Example 87] | 335 | 262
3 | Cc1nsc(NC(=O)N2CCC(=Cc3ccc(CO)cc3F)CC2)n1 [Example 89, 4-[[2-fluoro-4-(hydroxymethyl)phenyl]methylene]-N-(3-methyl-1,2,4-thiadiazol-5-yl)piperidine-1-carboxamide] | 352 | 228
4 | Cc1nsc(NC(=O)N2CCC(C(=O)c3ccc(Cl)cc3F)CC2)n1 [Example 92, 4-(4-chloro-2-fluoro-benzoyl)-N-(3-methyl-1,2,4-thiadiazol-5-yl)piperidine-1-carboxamide] | 62 | 57
5 | COCc1ccc(C=C2CCN(C(=O)Nc3nc(C)ns3)CC2)c(F)c1 [Example 93, 4-[[2-fluoro-4-(methoxymethyl)phenyl]methylene]-N-(3-methyl-1,2,4-thiadiazol-5-yl)piperidine-1-carboxamide] | 63 | 56
6 | O=C(Nc1ccncc1)N1CCC(=Cc2ccc(Cl)cc2F)CC1 [Example 94] | 159 | 97
7 | Cc1nsc(NC(=O)N2CCC(=Cc3c(F)cc(C#N)cc3F)CC2)n1 [Example 95, 4-[(4-cyano-2,6-difluoro-phenyl)methylene]-N-(3-methyl-1,2,4-thiadiazol-5-yl)piperidine-1-carboxamide] | 30 | 20
8 | O=C(Nc1nc(CCO)ns1)N1CCC(Cc2ccc(Cl)cc2F)CC1 [Example 96] | 361 | 208
9 | COc1cc(F)c(C=C2CCN(C(=O)Nc3nc(C)ns3)CC2)c(F)c1 [Example 97, 4-[(2,6-difluoro-4-methoxy-phenyl)methylene]-N-(3-methyl-1,2,4-thiadiazol-5-yl)piperidine-1-carboxamide] | 30 | 28
10 | COc1cc(F)c(CC2CCN(C(=O)Nc3nc(C)ns3)CC2)c(F)c1 [Example 98, 4-[(2,6-difluoro-4-methoxy-phenyl)methyl]-N-(3-methyl-1,2,4-thiadiazol-5-yl)piperidine-1-carboxamide] | 76 | 39
11 | Cc1nsc(NC(=O)N2CCC(Cc3c(F)cc(O)cc3F)CC2)n1 [Example 100] | 402 | 200
12 | Cc1nsc(NC(=O)N2CCC(=Cc3ccc(NCCN)cc3F)CC2)n1 [Example 101, 4-[[4-(2-aminoethylamino)-2-fluoro-phenyl]methylene]-N-(3-methyl-1,2,4-thiadiazol-5-yl)piperidine-1-carboxamide] | 412 | 251
13 | Cc1nsc(NC(=O)N2CCC(=Cc3ccc(NCCCN)cc3F)CC2)n1 [Example 102] | 395 | 189
14 | COc1ccc(C=C2CCCN(C(=O)Nc3nc(C)ns3)CC2)c(F)c1 [Example 103] | 156 | 71
15 | Nc1nsc(NC(=O)N2CCC(Cc3ccc(Cl)cc3F)CC2)n1 [Example 108, N-(3-amino-1,2,4-thiadiazol-5-yl)-4-[(4-chloro-2-fluoro-phenyl)methyl]piperidine-1-carboxamide] | 132 | 96
16 | CNc1ccc(C=C2CCN(C(=O)Nc3nc(C)ns3)CC2)c(F)c1 [Example 109] | 103 | 55
17 | Cc1nsc(NC(=O)N2CCC(=Cc3ccc(N(C)CCO)cc3F)CC2)n1 [Example 110] | 151 | 66
18 | Cc1nsc(NC(=O)N2CCC(=Cc3c(F)cc(N(C)C)cc3F)CC2)n1 [Example 112, 4-[[4-(dimethylamino)-2,6-difluoro-phenyl]methylene]-N-(3-methyl-1,2,4-thiadiazol-5-yl)piperidine-1-carboxamide] | 23 | 12
19 | Cc1nsc(NC(=O)N2CCC(Cc3c(F)cc(N(C)C)cc3F)CC2)n1 [Example 113, 4-[[4-(dimethylamino)-2,6-difluoro-phenyl]methyl]-N-(3-methyl-1,2,4-thiadiazol-5-yl)piperidine-1-carboxamide] | 52 | 35

Row | Compound | IC50 [1] [nM] | IC50 [2] [nM]
20 | Cc1nsc(NC(=O)N2CCCC(=Cc3c(F)cc(Cl)cc3F)CC2)n1 [Example 114] | 65 | 19
21 | Cc1nsc(NC(=O)N2CCC/C(=C/c3c(F)cc(N(C)C)cc3F)CC2)n1 [Example 115, (4Z)-4-[[4-(dimethylamino)-2,6-difluoro-phenyl]methylene]-N-(3-methyl-1,2,4-thiadiazol-5-yl)azepane-1-carboxamide] | 79 | 29
22 | Cc1nsc(NC(=O)N2CCCC(=Cc3ccc(C(F)(F)F)cc3F)CC2)n1 [Example 116] | 150 | 54
23 | Cc1nsc(NC(=O)N2CCCC(=Cc3ccc(C#N)cc3F)CC2)n1 [Example 117] | 145 | 77
24 | Cc1nsc(NC(=O)N2CCC/C(=C/c3ccc(Cl)cc3F)CC2)n1 [Example 118, (4Z)-4-[(4-chloro-2-fluoro-phenyl)methylene]-N-(3-methyl-1,2,4-thiadiazol-5-yl)azepane-1-carboxamide] | 70 | 43
25 | Cc1nsc(NC(=O)N2CCCC(Cc3ccc(C(F)(F)F)cc3F)CC2)n1 (stereo not shown) [Example 120, 4-[[2-fluoro-4-(trifluoromethyl)phenyl]methyl]-N-(3-methyl-1,2,4-thiadiazol-5-yl)azepane-1-carboxamide] | 54 | 32
26 | Cc1nsc(NC(=O)N2CCCC(Cc3c(F)cc(N(C)C)cc3F)CC2)n1 (stereo not shown) [Example 121, 4-[[4-(dimethylamino)-2,6-difluoro-phenyl]methyl]-N-(3-methyl-1,2,4-thiadiazol-5-yl)azepane-1-carboxamide] | 54 | 20
27 | Cc1nsc(NC(=O)N2CCCC(Cc3c(F)cc(Cl)cc3F)CC2)n1 (stereo not shown) [Example 127, 4-[(4-chloro-2,6-difluoro-phenyl)methyl]-N-(3-methyl-1,2,4-thiadiazol-5-yl)azepane-1-carboxamide] | 35 | 15
28 | Cc1cc(NC(=O)N2CCC(=Cc3ccc(Cl)cc3F)CC2)ccn1 [Example 128] | 168 | 33
29 | Cc1nsc(NC(=O)N2CCC(Cc3c(F)cc(C#N)cc3F)CC2)n1 [Example 129, 4-[(4-cyano-2,6-difluoro-phenyl)methyl]-N-(3-methyl-1,2,4-thiadiazol-5-yl)piperidine-1-carboxamide] | 20 | 16
30 | Cc1cc(NC(=O)N2CCC(=Cc3c(F)cc(Cl)cc3F)CC2)ccn1 [Example 137, 4-[(4-chloro-2,6-difluoro-phenyl)methylene]-N-(2-methyl-4-pyridyl)piperidine-1-carboxamide] | 42 | 17
31 | Cc1cc(NC(=O)N2CCC(=Cc3c(F)cc(C(F)(F)F)cc3F)CC2)ccn1 [Example 138, 4-[[2,6-difluoro-4-(trifluoromethyl)phenyl]methylene]-N-(2-methyl-4-pyridyl)piperidine-1-carboxamide] | 147 | 21
32 | Cc1cc(NC(=O)N2CCC(Cc3c(F)cc(C(F)(F)F)cc3F)CC2)ccn1 [Example 139] | 152 | 22
33 | COc1ccc(C(=O)C2CCN(C(=O)Nc3nc(C)ns3)CC2)c(F)c1 [Example 140, 4-(2-fluoro-4-methoxy-benzoyl)-N-(3-methyl-1,2,4-thiadiazol-5-yl)piperidine-1-carboxamide] | 94 | 43
34 | Cc1nsc(NC(=O)N2CCC(C(=O)c3ccc(Br)cc3F)CC2)n1 [Example 141, 4-(4-bromo-2-fluoro-benzoyl)-N-(3-methyl-1,2,4-thiadiazol-5-yl)-piperidine-1-carboxamide] | 56 | 29
35 | Cc1cc(NC(=O)N2CCC(C(=O)c3ccc(C(F)(F)F)cc3F)CC2)ccn1 [Example 143] | 103 | 43
36 | CCc1cc(NC(=O)N2CCC(=Cc3ccc(Cl)cc3F)CC2)ccn1 [Example 144, 4-[(4-chloro-2-fluoro-phenyl)methylene]-N-(2-ethyl-4-pyridyl)piperidine-1-carboxamide] | 53 | 8
37 | Cc1cc(NC(=O)N2CCC(Cc3c(F)cc(Cl)cc3F)CC2)ccn1 [Example 145] | 106 | 15
38 | COCCN(C)c1cc(F)c(C=C2CCN(C(=O)Nc3nc(C)ns3)CC2)c(F)c1 [Example 146, 4-[[2,6-difluoro-4-[2-methoxyethyl(methyl)amino]phenyl]methylene]-N-(3-methyl-1,2,4-thiadiazol-5-yl)piperidine-1-carboxamide] | 20 | 13
